# According to US10722514B2 (FLX Bio, Inc., priority 2017, dated 2020):
# Where a name gives a salt, the structure may show the parent alone.
# Biological target: T1, recombinant full-length USP7 (Homo sapiens, UniProt Q93009)
# T1 construct: A 25 μl reaction volume containing recombinant full-length USP7 (62 pM)
# Test: USP7-mediated ubiquitin-rhodamine cleavage assay
# Assay type: biochemical
# Settings: recombinant full-length USP7 62 pM; ubiquitin-rhodamine 100 nM; 30-minute incubation with compound, 1 hour reaction at room temperature; read-out: Potency: USP7 IC50
# In short: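 Rhodamine fluorescence read-out after acetic acid stop; IC50 by 4-parameter nonlinear regression. Enzyme at 62 pM, substrate ubiquitin-rhodamine 100 nM final, 1 h at room temperature in the dark, after 30 min compound preincubation. Buffer: HEPES pH 7.3, NaCl, TCEP, BSA; 1% DMSO.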
# T1 sequence (Q93009 whole entry): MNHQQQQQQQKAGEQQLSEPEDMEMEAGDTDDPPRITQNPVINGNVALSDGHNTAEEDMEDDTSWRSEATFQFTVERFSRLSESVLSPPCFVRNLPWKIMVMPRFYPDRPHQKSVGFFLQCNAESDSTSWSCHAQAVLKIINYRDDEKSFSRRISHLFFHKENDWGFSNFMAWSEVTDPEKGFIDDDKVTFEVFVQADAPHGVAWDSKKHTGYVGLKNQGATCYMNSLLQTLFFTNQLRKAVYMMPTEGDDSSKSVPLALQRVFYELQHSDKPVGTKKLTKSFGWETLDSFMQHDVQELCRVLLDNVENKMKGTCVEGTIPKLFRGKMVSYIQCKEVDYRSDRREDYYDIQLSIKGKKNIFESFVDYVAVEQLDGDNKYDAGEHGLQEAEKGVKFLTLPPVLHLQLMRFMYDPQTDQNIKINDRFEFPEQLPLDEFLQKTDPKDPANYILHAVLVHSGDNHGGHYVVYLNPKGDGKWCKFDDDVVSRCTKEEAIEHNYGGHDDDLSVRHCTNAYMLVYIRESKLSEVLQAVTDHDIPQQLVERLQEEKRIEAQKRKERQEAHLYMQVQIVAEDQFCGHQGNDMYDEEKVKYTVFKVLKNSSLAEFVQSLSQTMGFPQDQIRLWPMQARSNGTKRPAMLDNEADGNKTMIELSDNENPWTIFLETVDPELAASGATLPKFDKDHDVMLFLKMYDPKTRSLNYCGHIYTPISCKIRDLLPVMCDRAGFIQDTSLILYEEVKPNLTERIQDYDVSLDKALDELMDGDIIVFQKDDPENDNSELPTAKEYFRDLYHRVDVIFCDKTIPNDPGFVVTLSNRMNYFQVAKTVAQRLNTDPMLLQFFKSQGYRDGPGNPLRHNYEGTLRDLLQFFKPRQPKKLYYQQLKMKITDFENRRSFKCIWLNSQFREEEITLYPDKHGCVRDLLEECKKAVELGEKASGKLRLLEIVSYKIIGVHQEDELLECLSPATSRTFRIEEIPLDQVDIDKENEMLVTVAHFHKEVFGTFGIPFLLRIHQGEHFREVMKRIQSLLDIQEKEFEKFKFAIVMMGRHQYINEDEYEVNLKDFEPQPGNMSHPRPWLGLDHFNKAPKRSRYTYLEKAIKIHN
row,SMILES,IC50 [nM]
1,"CC(=O)NCc1cc2nccc(-c3cc(Cl)cc(C)c3O[C@@H]3CNC[C@@H]3F)c2s1 [Example 91, N-((7-(5-Chloro-2-(((3R,4S)-4-fluoropyrrolidin-3-yl)oxy)-3-methylphenyl)thieno[3,2-b]pyridin-2-yl)methyl)acetamide]",< 1000
2,"Cc1cc(Cl)cc(-c2ncnc3cc(CN4C(=O)CSC4=O)sc23)c1O[C@@H]1CNC[C@@H]1F [Example 129, 3-((4-(5-Chloro-2-(((3R,4S)-4-fluoropyrrolidin-3-yl)oxy)-3-methylphenyl)thieno[3,2-d]pyrimidin-6-yl)methyl)thiazolidine-2,4-dione]",< 1000
3,"N#Cc1cc(Cl)c(O[C@@H]2CNC[C@@H]2F)c(-c2ccnc3cc(CN4C(=O)CCC4=O)sc23)c1 [Example 122, 3-Chloro-5-(2-((2,5-dioxopyrrolidin-1-yl)methyl)thieno[3,2-b]pyridin-7-yl)-4-(((3R,4S)-4-fluoropyrrolidin-3-yl)oxy)benzonitrile]",< 1000
4,"Cc1cc(Cl)cc(-c2ncnc3cc(CN4C(=O)CN(C)C4=O)sc23)c1O[C@@H]1CNC[C@@H]1F [Example 146, 3-((4-(5-Chloro-2-(((3R,4S)-4-fluoropyrrolidin-3-yl)oxy)-3-methylphenyl)thieno[3,2-d]pyrimidin-6-yl)methyl)-1-methylimidazolidine-2,4-dione]",< 1000
5,"Cc1cc(Cl)cc(-c2ccnc3cc([C@@H](C)N4C(=O)C5C(C4=O)C5(C)C)sc23)c1OC1CCC(C)NC1 (stereo partly drawn) [Example 397, 3-[(1R)-1-[7-[5-chloro-3-methyl-2-[(6-methyl-3-piperidyl)oxy]phenyl]thieno[3,2-b]pyridin-2-yl]ethyl]-6,6-dimethyl-3-azabicyclo[3.1.0]hexane-2,4-dione; 2,2,2-trifluoroacetic acid]",< 1000
6,"Cc1cc(Cl)cc(-c2ncnc3cc(CN4C(=O)C5CCCC5C4=O)sc23)c1O[C@@H]1CNC[C@@H]1F (stereo partly drawn) [Example 158, 2-((4-(5-Chloro-2-(((3R,4S)-4-fluoropyrrolidin-3-yl)oxy)-3-methylphenyl)thieno[3,2-d]pyrimidin-6-yl)methyl)tetrahydrocyclopenta[c]pyrrole-1,3(2H,3aH)-dione]",< 1000
7,"Cc1cc(Cl)cc(-c2ccnc3cc(CO)sc23)c1O[C@@H]1CN[C@H](C)C1 [Example 62, (7-(5-Chloro-3-methyl-2-(((3S,5R)-5-methylpyrrolidin-3-yl)oxy)phenyl)thieno[3,2-b]pyridin-2-yl)methanol]",10000 to 30000
8,"O=C1CCC(=O)N1Cc1cc2nccc(-c3cc(Cl)cc(Br)c3O[C@@H]3CNC[C@@H]3F)c2s1 [Example 102, 1-((7-(3-Bromo-5-chloro-2-(((3R,4S)-4-fluoropyrrolidin-3-yl)oxy)phenyl)thieno[3,2-b]pyridin-2-yl)methyl)pyrrolidine-2,5-dione]",< 1000

# The next lines start with the values.
row,IC50 [nM],SMILES
1,1000 to 10000,"Cc1cc(Cl)cc(-c2ccnc3cc(CN4C(=O)C5CCCN5C4=O)sc23)c1OC1CCNCC1 (centres unmarked) [Example 218, 2-((7-(5-Chloro-3-methyl-2-(piperidin-4-yloxy)phenyl)thieno[3,2-b]pyridin-2-yl)methyl)tetrahydro-1H-pyrrolo[1,2-c]imidazole-1,3(2H)-dione]"
2,< 1000,"Cc1cc(Cl)cc(-c2ccnc3cc(CN4C(=O)c5cccnc5C4=O)sc23)c1O[C@H]1CCCNC1 [Example 334, 6-[[7-[5-chloro-3-methyl-2-[[(3S)-3-piperidyl]oxy]phenyl]thieno[3,2-b]pyridin-2-yl]methyl]pyrrolo[3,4-b]pyridine-5,7-dione; 2,2,2-trifluoroacetic acid]"
3,< 1000,"CO[C@H]1CNC[C@H]1Oc1c(C)cc(Cl)cc1-c1ccnc2cc(CN3C(=O)CCC3=O)sc12 [Example 106, 1-((7-(5-Chloro-2-(((3R,4S)-4-methoxypyrrolidin-3-yl)oxy)-3-methylphenyl)thieno[3,2-b]pyridin-2-yl)methyl)pyrrolidine-2,5-dione]"
4,< 1000,"Cc1cc(Cl)cc(-c2ccnc3cc(CN4C(=O)C5C(C4=O)C5(C)C)sc23)c1O[C@@H]1CNC[C@@H]1C(F)F (stereo partly drawn) [Example 389, 3-[[7-[5-chloro-2-[(3S,4S)-4-(difluoromethyl)pyrrolidin-3-yl]oxy-3-methyl-phenyl]thieno[3,2-b]pyridin-2-yl]methyl]-6,6-dimethyl-3-azabicyclo[3.1.0]hexane-2,4-dione dihydrochloride]"
5,< 1000,"Cc1cc(Cl)cc(-c2ccnc3cc(CN4C(=O)CCC4=O)sc23)c1O[C@@H]1CN[C@H](CO)C1 [Example 116, 1-((7-(5-Chloro-2-(((3S,5S)-5-(hydroxymethyl)pyrrolidin-3-yl)oxy)-3-methylphenyl)thieno[3,2-b]pyridin-2-yl)methyl)pyrrolidine-2,5-dione]"

# Same assay, conditions: recombinant full-length USP7 62 pM; ubiquitin-rhodamine 100 nM; 30-minute pre-incubation, 1 hour reaction at room temperature; read-out: Potency (USP7 IC50)
row,SMILES,IC50 [nM]
1,"Cc1cc(Cl)cc(-c2ccnc3cc(Cn4c(=O)ccn(CC(F)(F)F)c4=O)sc23)c1O[C@@H]1CN[C@@H]1C [Example 591, 3-[[7-[5-chloro-3-methyl-2-[(2R,3R)-2-methylazetidin-3-yl]oxy-phenyl]thieno[3,2-b]pyridin-2-yl]methyl]-1-(2,2,2-trifluoroethyl)pyrimidine-2,4-dione]",< 1000
2,"Cc1cc(Cl)cc(-c2ccnc3cc(Cn4c(=O)ccn(C)c4=O)sc23)c1O[C@@H]1CC[C@@H](N)C1 [Example 426, 3-[[7-[2-[(1R,3R)-3-aminocyclopentoxy]-5-chloro-3-methyl-phenyl]thieno[3,2-b]pyridin-2-yl]methyl]-1-methyl-pyrimidine-2,4-dione; 2,2,2-trifluoroacetic acid]",< 1000
3,"Cc1cc(Cl)cc(-c2ccnc3cc(Cn4c(=O)ccn(CC(F)(F)F)c4=O)sc23)c1OC1CC(N2CCOC[C@@H]2C)C1 (stereo partly drawn) [Example 658, 3-[[7-[5-chloro-3-methyl-2-[3-[(3S)-3-methylmorpholin-4-yl]cyclobutoxy]phenyl]thieno[3,2-b]pyridin-2-yl]methyl]-1-(2,2,2-trifluoroethyl)pyrimidine-2,4-dione; 2,2,2-trifluoroacetic acid]",< 1000
4,"Cc1cc(Cl)cc(-c2ccnc3cc(CN4C(=O)CCC4=O)sc23)c1OC1CC(N)C1 (centres unmarked) [Example 438, 1-[[7-[2-(3-aminocyclobutoxy)-5-chloro-3-methyl-phenyl]thieno[3,2-b]pyridin-2-yl]methyl]pyrrolidine-2,5-dione; 2,2,2-trifluoroacetic acid]",< 1000
5,"Cc1cc(Cl)cc(-c2ccnc3cc(Cn4c(=O)ccn(C)c4=O)sc23)c1OCC1(C(F)F)CNC1 [Example 533, 3-[[7-[5-chloro-2-[[3-(difluoromethyl)azetidin-3-yl]methoxy]-3-methyl-phenyl]thieno[3,2-b]pyridin-2-yl]methyl]-1-methyl-pyrimidine-2,4-dione]",< 1000
6,"Cc1cc(Cl)cc(-c2ncnc3cc(Cn4c(=O)ccn(C(C)C)c4=O)sc23)c1O[C@H]1CC[C@H](N)C1 [Example 542, 3-[[4-[2-[(1S,3S)-3-aminocyclopentoxy]-5-chloro-3-methyl-phenyl]thieno[3,2-d]pyrimidin-6-yl]methyl]-1-isopropyl-pyrimidine-2,4-dione; 2,2,2-trifluoroacetic acid]",< 1000

# Other lines, results leading:
row,IC50 [nM],SMILES
1,< 1000,"Cc1cc(Cl)cc(-c2ccnc3cc(Cn4c(=O)c(F)cn(CC(F)(F)F)c4=O)sc23)c1O[C@H]1CCCNC1 [Example 555, 3-[[7-[5-chloro-3-methyl-2-[[(3S)-3-piperidyl]oxy]phenyl]thieno[3,2-b]pyridin-2-yl]methyl]-5-fluoro-1-(2,2,2-trifluoroethyl)pyrimidine-2,4-dione]"
2,< 1000,"CO[C@@H]1CC(=O)N(Cc2cc3nccc(-c4cc(Cl)cc(C)c4O[C@H]4CCCNC4)c3s2)C1=O [Example 481, (3R)-1-[[7-[5-chloro-3-methyl-2-[[(3S)-3-piperidyl]oxy]phenyl]thieno[3,2-b]pyridin-2-yl]methyl]-3-methoxy-pyrrolidine-2,5-dione; 2,2,2-trifluoroacetic acid]"
3,1000 to 10000,"Cc1c(F)c(Cl)cc(-c2ccnc3cc(CN4C(=O)CCC4=O)sc23)c1O[C@H]1CCCNC1 [Example 433, 1-[[7-[5-chloro-4-fluoro-3-methyl-2-[[(3S)-3-piperidyl]oxy]phenyl]thieno[3,2-b]pyridin-2-yl]methyl]pyrrolidine-2,5-dione; 2,2,2-trifluoroacetic acid]"
4,< 1000,"Cc1cc(C(F)F)cc(-c2ccnc3cc(Cn4c(=O)ccn(C)c4=O)sc23)c1O[C@H]1CCCNC1 [Example 499, 3-[[7-[5-(difluoromethyl)-3-methyl-2-[[(3S)-3-piperidyl]oxy]phenyl]thieno[3,2-b]pyridin-2-yl]methyl]-1-methyl-pyrimidine-2,4-dione]"
5,< 1000,"Cc1cc(Cl)cc(-c2ccnc3cc(Cn4c(=O)ccn(C)c4=O)sc23)c1O[C@@H]1CNC[C@@H]1C(F)(F)F [Example 441, 3-[[7-[5-chloro-3-methyl-2-[(3S,4S)-4-(trilfuoromethyl)pyrrolidin-3-yl]oxy-phenyl]thieno[3,2-b]pyridin-2-yl]methyl]-1-methyl-pyrimidine-2,4-dione]"
6,< 1000,"Cc1cc(Cl)cc(-c2ccnc3cc(Cn4c(=O)ccn(C)c4=O)sc23)c1O[C@H]1CCCN(C)CC1 [Example 492, 3-[[7-[5-chloro-3-methyl-2-[(4S)-1-methylazepan-4-yl]oxy-phenyl]thieno[3,2-b]pyridin-2-yl]methyl]-1-methyl-pyrimidine-2,4-dione]"
7,< 1000,"Cc1cc(Cl)cc(-c2ccnc3cc(Cn4c(=O)c(F)cn(C(C)C)c4=O)sc23)c1O[C@H]1CCCNC1 [Example 547, 3-[[7-[5-chloro-3-methyl-2-[[(3S)-3-piperidyl]oxy]phenyl]thieno[3,2-b]pyridin-2-yl]methyl]-5-fluoro-1-isopropyl-pyrimidine-2,4-dione]"
